Assay results as given in US7056679B2, “Target specific screening and its use for identifying target binders” (Antyra, Inc., priority 2001, dated 2006).
No end group written: not given here.

Assays:
DGI-2 = target: T1, DGI-2 (Homo sapiens, UniProt Q15004); experiment: ELISA analysis of phage on DGI-2 polypeptide (specific binding); conditions: for DGI-2 (OD): binding to DGI-2 polypeptide (specific binding), phage ELISA units read at 405 nm; for DGI-2/LDH (OD): ratio of specific binding to non-specific binding
T1 construct: encompassed the entire DGI-2 open reading frame (ORF); His-tag of vector pIVEX2.3-MCS (inferred from the vector and from the reverse primer lacking a stop codon); made in house; host or cells: cell-free in vitro translation (Rapid Translation System RTS, Roche; E. coli lysate)
T1 sequence (Q15004 1-111): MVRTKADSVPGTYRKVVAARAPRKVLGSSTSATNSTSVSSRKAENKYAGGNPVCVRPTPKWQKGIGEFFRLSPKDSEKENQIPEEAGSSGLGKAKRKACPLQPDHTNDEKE
Method: To verify that the selected target binders bound to DGI-2, Elisa assays were performed with recombinant DGI-2. DGI-2 was subcloned and expressed using conventional methods as described below.
Protein yields were satisfactory, but most of protein was found in inclusion bodies. Next, DGI-2 was expressed using an in vitro translation system (Rapid Translation System RTS 5000, Roche Diagnostics GmbH, Mannheim Germany). For this system, the DGI-2 ORF was cloned into the pIVEX2.3-MCS vector (Roche Diagnostics) using restriction sites Nde I and Hind III, which were added to DGI-2 by PCR. […] The primers used for the PCR amplification were as follows: […]
(§1) For analysis of individual target binders, colonies were picked and phage prepared as described above using helper phage, M13KO7. Ninety-six-well microtiter plates were coated with 500 ng/well of specific target protein, 500 ng/well lactate dehydrogenase (LDH) irrelevant or non-specific target, 500 ng/well of positive control antibody raised against ETAG, and negative control of non-fat milk powder-PBS 2% at 4° C. overnight. Plates were then blocked with 350 microliters/well PBS containing 2% non-fat milk for 1 hr at room temperature. One hundred microliters per well of phage from isolated clones were added and plates were incubated at room temperature for 2 hr after centrifuging samples for 20 minutes at 3500 rpm at 4° C. The phage solution was then removed, and the wells were washed three times with PBS at room temperature. Antibody raised against M13 conjugated to horseradish peroxidase (Pharmacia) was diluted 1:3000 in PBS-Tween and added to each well (100 μl/well). Incubation was for 1 hr at room temperature, followed by washing with PBS-(0.5%) Tween 3 times as described. Color was developed by addition of ABTS solution (100 μl/well; Boehringer, Indianapolis, Ind.). Plates were analyzed at 405 nm. A clone was considered “positive” if the A405 of the well was ≧2-fold over background.

[1] = system: lactate dehydrogenase (LDH); experiment: ELISA analysis of phage on LDH (irrelevant, non-specific target); type: binding; conditions: for LDH (OD): peptide binding to LDH polypeptide (non-specific binding), phage ELISA units read at 405 nm; for LDH: DGI-9 binders, LDH control irrelevant protein, ratio over background
Method: as §1

E-tag antibody = experiment: ELISA analysis of phage on antibody raised against ETAG (positive control); conditions: peptide binding to E-tag antibody; phage ELISA units read at 405 nm
Method: as §1

## MFQDVACDLWHSVRCLRRDV (DGI-2-20R-3-B3; listed as Escherichia coli)
DGI-2
  DGI-2 (OD): 4.9 OD
  DGI-2/LDH (OD): 4.8
[1]
  LDH (OD): 1.0 OD
E-tag antibody
  ETAG (OD): 16.1 OD

## RDHRYVGWGRATFRHDQSVW (DGI-2-20F-PP-H1; listed as Escherichia coli)
DGI-2
  DGI-2 (OD): 1.7 OD
  DGI-2/LDH (OD): 1.4
[1]
  LDH (OD): 1.2 OD
E-tag antibody
  ETAG (OD): 1.4 OD

## LTPYSLARSWLSGRPSTGAT (DGI-2-20F-3-C12; listed as Escherichia coli)
DGI-2
  DGI-2 (OD): 3.2 OD
  DGI-2/LDH (OD): 3.1
[1]
  LDH (OD): 1.0 OD
E-tag antibody
  ETAG (OD): 15.1 OD

## VAFGEQJRVAMAGTLWQRWR (VAFGEQIRVAMAGTLWQRWR; not fully specified; non-natural residue J; DGI-2-20R-3-D5; listed as Escherichia coli)
DGI-2
  DGI-2 (OD): 1.5 OD
  DGI-2/LDH (OD): 1.4
[1]
  LDH (OD): 1.1 OD
E-tag antibody
  ETAG (OD): 8.5 OD

## VSGY#SLWWCGPGWGPRSGR (VSGYSLWWCGPGWGPRSGR; DGI-2-20F-PP-H11; listed as Escherichia coli)
DGI-2
  DGI-2 (OD): 1.6 OD
  DGI-2/LDH (OD): 2.0
[1]
  LDH (OD): 0.8 OD
E-tag antibody
  ETAG (OD): 2.1 OD

## LSRIWRGVIESAREVESRGI (DGI-2-20F-3-B1; listed as Escherichia coli)
DGI-2
  DGI-2 (OD): 1.2 OD
  DGI-2/LDH (OD): 1.2
[1]
  LDH (OD): 0.9 OD
E-tag antibody
  ETAG (OD): 11.4 OD

## VWAAWVEGSLLSPRQEPVRD (DGI-2-20R-4-G4; listed as Escherichia coli)
DGI-2
  DGI-2 (OD): 10.2 OD
  DGI-2/LDH (OD): 9.8
[1]
  LDH (OD): 1.0 OD
E-tag antibody
  ETAG (OD): 13.6 OD

## DQRVVGSGWFERLRNWYDRA (DGI-2-20R-4-G99; listed as Escherichia coli)
DGI-2
  DGI-2 (OD): 7.5 OD
  DGI-2/LDH (OD): 7.2
[1]
  LDH (OD): 1.0 OD
E-tag antibody
  ETAG (OD): 14.1 OD

## RRFVRCSVPVALRSAVPVSV (DGI-2-20F-PP-A10; listed as Escherichia coli)
DGI-2
  DGI-2 (OD): 2.4 OD
  DGI-2/LDH (OD): 2.4
[1]
  LDH (OD): 1.0 OD
E-tag antibody
  ETAG (OD): 16.3 OD

## GASRVVDVGWRFWGKLWQRS (DGI-2-20F-PP-G5; listed as Escherichia coli)
DGI-2
  DGI-2 (OD): 2.4 OD
  DGI-2/LDH (OD): 2.0
[1]
  LDH (OD): 1.2 OD
E-tag antibody
  ETAG (OD): 27.7 OD

## S#ARSLMTGVVAVCIVWRGP (SARSLMTGVVAVCIVWRGP; DGI-2-20F-PP-E8; listed as Escherichia coli)
DGI-2
  DGI-2 (OD): 2.5 OD
  DGI-2/LDH (OD): 2.6
[1]
  LDH (OD): 1.0 OD
E-tag antibody
  ETAG (OD): 36.3 OD

## WVVALRRIRLGLRRGVECLL (DGI-2-20F-PP-D5; listed as Escherichia coli)
DGI-2
  DGI-2 (OD): 2.7 OD
  DGI-2/LDH (OD): 2.3
[1]
  LDH (OD): 1.2 OD
E-tag antibody
  ETAG (OD): 33.6 OD

## GSVLERGCLEFSGFCFSLGH (DGI-2-20F-3-C1; listed as Escherichia coli)
DGI-2
  DGI-2 (OD): 3.4 OD
  DGI-2/LDH (OD): 3.4
[1]
  LDH (OD): 1.0 OD
E-tag antibody
  ETAG (OD): 14.0 OD

## GAIRLSGAAWTASRTGGRAS (DGI-2-20F-PP-E7; listed as Escherichia coli)
DGI-2
  DGI-2 (OD): 1.6 OD
  DGI-2/LDH (OD): 1.8
[1]
  LDH (OD): 0.9 OD
E-tag antibody
  ETAG (OD): 21.5 OD

## LSHPMSPLRAASQMALTQGV (DGI-2-20R-4-H7; listed as Escherichia coli)
DGI-2
  DGI-2 (OD): 3.1 OD
  DGI-2/LDH (OD): 2.6
[1]
  LDH (OD): 1.2 OD
E-tag antibody
  ETAG (OD): 14.1 OD

## QGSAHVVRPPGVYDVPWKVGMFFHPQNWPNSWGRAYFRSG (DGI-2-40F-3-D12; listed as Escherichia coli)
DGI-2
  DGI-2 (OD): 2.3 OD
  DGI-2/LDH (OD): 2.5
[1]
  LDH (OD): 1.0 OD
E-tag antibody
  ETAG (OD): 7.3 OD

## DRSRAPLCADKSGRWQRYRR (DGI-2-20F-PP-C10; listed as Escherichia coli)
DGI-2
  DGI-2 (OD): 2.7 OD
  DGI-2/LDH (OD): 3.1
[1]
  LDH (OD): 0.9 OD
E-tag antibody
  ETAG (OD): 8.6 OD

## TLVTEGNIKGSVKAHKDIGVWQLWWDWLSVTDSETVGRVSH (TLVTEGNKGSVKAHKDIGVWQLWWDWLSVTDSETVGRVSH; DGI-2-40F-3-D10; listed as Escherichia coli) [DGL-2-40F-3-D10]
DGI-2
  DGI-2 (OD): 1.5 OD
  DGI-2/LDH (OD): 1.7
[1]
  LDH (OD): 0.9 OD
E-tag antibody
  ETAG (OD): 10.3 OD

## SWRLWVSGELQGDRRKGLRG (DGI-2-20R-3-B7; listed as Escherichia coli)
DGI-2
  DGI-2 (OD): 3.1 OD
  DGI-2/LDH (OD): 3.0
[1]
  LDH (OD): 1.0 OD
E-tag antibody
  ETAG (OD): 11.7 OD

## RKGWGVFCIPGLRFCDWSDP (DGI-2-20R-3-B4; listed as Escherichia coli)
DGI-2
  DGI-2 (OD): 8.4 OD
  DGI-2/LDH (OD): 8.6
[1]
  LDH (OD): 1.0 OD
E-tag antibody
  ETAG (OD): 17.4 OD

## LHRLGQSMGGTLDHLQGWGV (DGI-2-20R-4-E5; listed as Escherichia coli)
DGI-2
  DGI-2 (OD): 1.2 OD
  DGI-2/LDH (OD): 1.1
[1]
  LDH (OD): 1.1 OD
E-tag antibody
  ETAG (OD): 17.9 OD

## SIVSSRSGWQRGWIAWEAPV (SIVSSRSGWQRGWIAWFAPV; DGI-2-20F-PP-E5; listed as Escherichia coli)
DGI-2
  DGI-2 (OD): 2.7 OD
  DGI-2/LDH (OD): 2.7
[1]
  LDH (OD): 1.0 OD
E-tag antibody
  ETAG (OD): 30.4 OD

## V#CR#LCRLCRFSMRCGGLSLVLGSAAAFFCEVFVGFCV (VCRLCRLCRFSMRCGGLSLVLGSAAAFFCEVFVGFCV; not fully specified (residues 1, 3); cysteine pairing not given here; also: TAA stop codons (#) after V1 and after R3; listed as Escherichia coli) [DGI-2-40F-4-E1130]
DGI-2
  DGI-2 (OD): 2.9 OD
  DGI-2/LDH (OD): 3.2
[1]
  LDH (OD): 0.9 OD
E-tag antibody
  ETAG (OD): 8.3 OD

## DAGIGWVGSMWFPPGCIGAC (DGI-2-20R-4-E82; listed as Escherichia coli)
DGI-2
  DGI-2 (OD): 3.9 OD
  DGI-2/LDH (OD): 3.7
[1]
  LDH (OD): 1.1 OD
E-tag antibody
  ETAG (OD): 19.6 OD

## SLECWAMPGMVVRLVGCDGP (DGI-2-20R-4-H112; listed as Escherichia coli)
DGI-2
  DGI-2 (OD): 6.6 OD
  DGI-2/LDH (OD): 6.0
[1]
  LDH (OD): 1.1 OD
E-tag antibody
  ETAG (OD): 12.3 OD

## LGRIVRPCVVRLCGGV##GV (LGRIVRPCVVRLCGGVGV; DGI-2-20F-PP-G10; listed as Escherichia coli)
DGI-2
  DGI-2 (OD): 2.5 OD
  DGI-2/LDH (OD): 2.0
[1]
  LDH (OD): 1.2 OD
E-tag antibody
  ETAG (OD): 30.1 OD

## MAGFRGSGLSGYSEARLPRV [DGI9-20M-4-E3]
[1]
  LDH: 1.0

## GHGAGDWAAELFVCPVAFLTGFAWR (DGI-2-20R-4-H2; listed as Escherichia coli)
DGI-2
  DGI-2 (OD): 9.9 OD
  DGI-2/LDH (OD): 9.2
[1]
  LDH (OD): 1.1 OD
E-tag antibody
  ETAG (OD): 12.9 OD

## RPVVCLAGLTLAQFGWVFPGWRGWS (DGI-2-20C-3-C1039; listed as Escherichia coli)
DGI-2
  DGI-2 (OD): 4.7 OD
  DGI-2/LDH (OD): 4.7
[1]
  LDH (OD): 1.0 OD
E-tag antibody
  ETAG (OD): 11.8 OD

## MSTLQGPGHLFQMLRRASLG (DGI-2-20R-4-H12; listed as Escherichia coli)
DGI-2
  DGI-2 (OD): 3.7 OD
  DGI-2/LDH (OD): 2.8
[1]
  LDH (OD): 1.3 OD
E-tag antibody
  ETAG (OD): 10.9 OD

## RWSLPAYLCRFVSQASCNSR (DGI-2-20R-3-C12; listed as Escherichia coli)
DGI-2
  DGI-2 (OD): 1.6 OD
  DGI-2/LDH (OD): 1.6
[1]
  LDH (OD): 1.0 OD
E-tag antibody
  ETAG (OD): 14.6 OD

## TIDVARRFGYGWWDLWLDGD (DGI-2-20R-3-C3; listed as Escherichia coli)
DGI-2
  DGI-2 (OD): 7.9 OD
  DGI-2/LDH (OD): 7.0
[1]
  LDH (OD): 1.1 OD
E-tag antibody
  ETAG (OD): 20.2 OD

## WWERFVWGRPVDDGVVVMAT (DGI-2-20R-3-B1; listed as Escherichia coli)
DGI-2
  DGI-2 (OD): 6.3 OD
  DGI-2/LDH (OD): 6.2
[1]
  LDH (OD): 1.0 OD
E-tag antibody
  ETAG (OD): 14.5 OD

## SRLALSSQHGLSLVAGRRRG [DGI9-20M-4-A12]
[1]
  LDH: 0.9

## WDWSRFGAQLRGAILGRATG [DGI9-20M-4-A627]
[1]
  LDH: 0.9

## FLLQDFIMDAGSFVKPIGVG [DGI9-20M-4-A414]
[1]
  LDH: 1.1
